One block for each compound: values may come before it.
Experiments:
BACE1 [1] = biological target: T1, BACE1 (Homo sapiens, UniProt P56817); assay: In Vitro Enzymatic BACE FRET (Fluorescence Resonance Energy Transfer) Assay; type: biochemical; conditions: read-out: BACE1 FRET assay
Outline: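 Fluorescence read-out after Tris addition raises pH to neutrality and ends the reaction. Before that, a peptide substrate carrying fluorophore and quencher across the BACE cleavage site (50 nM) is incubated with enzyme for one hour at pH 4.2 in acetate containing 10% DMSO and sub-micellar genapol.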

BACE1 [2] = biological target: T1, BACE1; assay: In Vitro BACE Cell-based Assay (HEK cell assay): Aβ40 in conditioned medium of cells stably expressing Amyloid Precursor Protein, sandwich ELISA; conditions: read-out: HEK cell assay
Outline: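 Conditioned medium Aβ40 by ELISA: pAb40 capture 3 h 4° C., biotin-6E10 detection 2 h 4° C., Streptavidin-Europium TRF. IC50 fitted from % control.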

[3] = Table II, Aβ40, 24 h incubation

T1 sequence (P56817 46-501, species assumed): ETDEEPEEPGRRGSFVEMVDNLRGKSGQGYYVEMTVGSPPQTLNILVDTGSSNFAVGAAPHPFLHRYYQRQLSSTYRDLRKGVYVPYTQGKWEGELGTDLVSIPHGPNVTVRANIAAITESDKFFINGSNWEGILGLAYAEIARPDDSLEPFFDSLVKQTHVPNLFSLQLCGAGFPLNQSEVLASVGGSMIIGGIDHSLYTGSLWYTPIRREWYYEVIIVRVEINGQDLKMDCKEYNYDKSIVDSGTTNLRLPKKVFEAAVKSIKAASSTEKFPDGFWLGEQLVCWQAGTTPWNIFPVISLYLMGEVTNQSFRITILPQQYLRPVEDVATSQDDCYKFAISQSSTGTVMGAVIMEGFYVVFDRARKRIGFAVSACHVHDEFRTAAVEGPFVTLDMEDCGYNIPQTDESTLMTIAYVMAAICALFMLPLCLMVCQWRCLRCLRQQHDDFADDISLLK

Compound: CC1(C)CC(c2ccc3c(c2)[C@]2(COC(N)=N2)c2cc(-c4cncnc4)ccc2O3)=CCO1 [compound 688]
IC50 (BACE1 [1]): < 0.1 µM
IC50 (BACE1 [2]): < 0.1 µM

Compound: CC(C)(C)COc1ccc2c(c1)[C@]1(COC(N)=N1)c1cc(N3CCOCC3)ccc1O2 [Example 43, (4S)-2′-(2,2-dimethylpropoxy)-7′-(4-morpholinyl)spiro[1,3-oxazole-4,9′-xanthen]-2-amine]
IC50 (BACE1 [1]; Table II): 0.1 to 1 µM
IC50 (BACE1 [2]; [3]): 0.1 to 1 µM

Compound: CC(C)(C)COc1ccc2c(c1)[C@@]1(COC(N)=N1)c1cc(-c3csc(C(F)F)c3)ccc1O2 [compound 783]
IC50 (BACE1 [1]): < 0.1 µM
IC50 (BACE1 [2]): 1 to 5 µM

Compound: NC1=N[C@@]2(CO1)c1cc(-c3cccnc3)ccc1Oc1cnc(N3CCN(CC(=O)O)CC3)cc12 [compound 396]
IC50 (BACE1 [1]; in vitro BACE FRET enzyme assay, IC50 class symbols): < 0.1 µM
IC50 (BACE1 [2]; HEK cell-based assay, Aβ40 in conditioned medium, IC50 class symbols): 0.1 to 1 µM

Compound: CC(C)(C)COc1ccc2c(c1)C1(COC(N)=N1)c1cc(NC(=O)c3ccc(Cl)cn3)ccc1O2 (stereo not drawn) [compound 522]
IC50 (BACE1 [1]): < 0.1 µM
IC50 (BACE1 [2]; HEK cells): < 0.1 µM

Compound: CC1(COc2ccc3c(c2)[C@@]2(COC(N)=N2)c2cc(-c4ccccc4)cnc2O3)COC1 [compound 966, (5S)-7-((3-methyl-3-oxetanyl)methoxy)-3-phenylspiro[chromeno[2,3-b]pyridine-5,4′-[1,3]oxazol]-2′-amine]
IC50 (BACE1 [1]): < 0.1 µM
IC50 (BACE1 [2]): < 0.1 µM

Compound: Cn1ccc2cc(-c3ccc4c(c3)[C@@]3(COC(N)=N3)c3cc(OCC(C)(C)C)ccc3O4)ccc21 [compound 914]
IC50 (BACE1 [1]; Table IV, class symbols): 0.1 to 1 µM
IC50 (BACE1 [2]; Table IV, class symbols): > 5 µM

Compound: CN(C)CC#Cc1ccc2c(c1)[C@@]1(COC(N)=N1)c1cc(OCC(C)(C)C)ccc1O2 [Example 89, (4S)-2′-(3-(dimethylamino)-1-propyn-1-yl)-7′-(2,2-dimethylpropoxy)spiro[1,3-oxazole-4,9′-xanthen]-2-amine]
IC50 (BACE1 [1]; Table II): 0.1 to 1 µM
IC50 (BACE1 [2]; [3]): 0.1 to 1 µM

Compound: CC(C)(C)COc1ccc2c(c1)[C@]1(COC(N)=N1)c1cc(N3CCCCC3)ccc1O2 [compound 813]
IC50 (BACE1 [1]; Table IV, class symbols): 0.1 to 1 µM
IC50 (BACE1 [2]; Table IV, class symbols): 0.1 to 1 µM

Compound: CC1(C#Cc2cnc3c(c2)[C@]2(COC(N)=N2)c2cc(-c4cc(F)ccc4F)ccc2O3)COC1 [compound 519]
IC50 (BACE1 [1]): < 0.1 µM
IC50 (BACE1 [2]; HEK cells): < 0.1 µM

Compound: NC1=N[C@]2(CO1)c1cc(CC(=O)O)ccc1Oc1ccc(-c3cncnc3)cc12 [compound 751]
IC50 (BACE1 [1]): 0.1 to 1 µM
IC50 (BACE1 [2]): > 5 µM

Compound: NC1=N[C@@]2(CO1)c1ccccc1Oc1ccc(-c3cccnc3F)cc12 [compound 641]
IC50 (BACE1 [1]; Table IV, class symbols): 0.1 to 1 µM
IC50 (BACE1 [2]; Table IV, class symbols): 1 to 5 µM

Compound: CC(C)(C#N)COc1ccc2c(c1)[C@]1(COC(N)=N1)c1cc(-c3cncnc3)cnc1O2 [compound 167]
IC50 (BACE1 [1]; Table III, IC50's in uM ranges): < 0.1 µM
IC50 (BACE1 [2]; Table III, IC50's in uM ranges): 0.1 to 1 µM

The next lines start with the values.

IC50 (BACE1 [1]; Table III, IC50's in uM ranges): > 5 µM
IC50 (BACE1 [2]; Table III, IC50's in uM ranges): > 5 µM
Compound: COc1cc2c(cc1F)Oc1ccc(-c3cncnc3)cc1[C@]21COC(N)=N1 [154a]

IC50 (BACE1 [1]): 0.1 to 1 µM
IC50 (BACE1 [2]): 1 to 5 µM
Compound: NC1=N[C@]2(CO1)c1cc(Br)ccc1Oc1ccc(-c3cccnc3)cc12 [compound 960]

IC50 (BACE1 [1]; Table III, IC50's in uM ranges): < 0.1 µM
IC50 (BACE1 [2]; Table III, IC50's in uM ranges): 0.1 to 1 µM
Compound: CC(C)(C)C#Cc1ccc2c(c1)[C@]1(COC(N)=N1)c1cc(Oc3ccccn3)ccc1O2 [Example 112, (4R)-2′-(3,3-dimethyl-1-butyn-1-yl)-7′-(2-pyridinyloxy)spiro[1,3-oxazole-4,9′-xanthen]-2-amine]

IC50 (BACE1 [1]): 0.1 to 1 µM
IC50 (BACE1 [2]): 0.1 to 1 µM
Compound: COc1ccc(-c2ccc3c(c2)[C@@]2(COC(N)=N2)c2cc(C#CC(C)(C)OC)cnc2O3)cn1 [compound 767]

IC50 (BACE1 [1]): < 0.1 µM
IC50 (BACE1 [2]): 0.1 to 1 µM
Compound: CC(C)(C)COc1ccc2c(c1)[C@]1(COC(N)=N1)c1cc(-c3cccnc3)ncc1O2 [compound 750]

IC50 (BACE1 [1]; Table III, IC50's in uM ranges): 0.1 to 1 µM
IC50 (BACE1 [2]; Table III, IC50's in uM ranges): 0.1 to 1 µM
Compound: COC(C)(C)C#Cc1ccc2c(c1)C1(COC(N)=N1)c1cc(C#CC(C)(C)OC)ccc1O2 [Example 119, 2′,7′-bis(3-methoxy-3-methylbut-1-ynyl)-5H-spiro[oxazole-4,9′-xanthen]-2-amine]

IC50 (BACE1 [1]; Table II): < 0.1 µM
IC50 (BACE1 [2]; [3]): 0.1 to 1 µM
Compound: CCCc1ccc2c(c1)[C@@]1(COC(N)=N1)c1cc(-c3cncnc3)ccc1O2 [Example 53, (4S)-2′-propyl-7′-(5-pyrimidinyl)spiro[1,3-oxazole-4,9′-xanthen]-2-amine]

IC50 (BACE1 [1]; Table III, IC50's in uM ranges): < 0.1 µM
IC50 (BACE1 [2]; Table III, IC50's in uM ranges): < 0.1 µM
Compound: COC(C)(C)C#Cc1ccc2c(c1)[C@]1(COC(N)=N1)c1cc(-c3cccnc3)ccc1O2 [compound 201]

IC50 (BACE1 [1]; Table 1): 1 to 5 µM
IC50 (BACE1 [2]; Table 1, Aβ40, 24 h incubation): 1 to 5 µM
Compound: COc1ccc2c(c1)C1(COC(N)=N1)c1cc(-c3cccc(OC(F)(F)F)c3)ccc1O2 (stereo not drawn) [Example 22, 2′-methoxy-7′-(3-(trifluoromethoxy)phenyl)spiro[1,3-oxazole-4,9′-xanthen]-2-amine]

IC50 (BACE1 [1]; Table IV, class symbols): < 0.1 µM
IC50 (BACE1 [2]; Table IV, class symbols): 0.1 to 1 µM
Compound: COc1ccc(-c2ccc3c(c2)[C@]2(COC(N)=N2)c2cc(-c4cncnc4)ccc2O3)cc1OC [compound 830]

IC50 (BACE1 [1]; Table II): < 0.1 µM
IC50 (BACE1 [2]; [3]): 1 to 5 µM
Compound: CC(C)(C)COc1ccc2c(c1)[C@]1(COC(N)=N1)c1cc(-c3ccccc3)ccc1O2 [Example 85, (4S)-2′-(2,2-dimethylpropoxy)-7′-phenylspiro[1,3-oxazole-4,9′-xanthen]-2-amine]
